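In this assay, cells in 96-well plates receive the compound at five concentrations for 48 hours. Endpoints are linearly interpolated between the surrounding concentrations. The concentration for 50% growth inhibition is given as GI50.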 Active and inactive are the calls of the source. Cut-off read from the data, not from the text of the source: active = GI50 up to about 1.1 µM and inactive = higher.

This note sets out measurements from ChEMBL document CHEMBL1201862, “PubChem BioAssay data set” (2004).

Common to all, as to experiment: growth of human tumour cells (NCI), 48 h
Test [1] concerns HT-29.
Test [2] has as its system NCI-H226.
Test [3] has as its system OVCAR-8.
For test [4], the system named is 786-0.
Test [5] concerns OVCAR-4.
The test system of test [6] is KM12.
For test [7], the system named is SN12C.
Test [8] has as its system COLO 205.
Test [9] has as its system SF-539.
In test [10] the test system is SNB-19.
Test [11] deals with K562.
In test [12] the test system is SK-MEL-2.
The test system of test [13] is T47D.
The test system of test [14] is HOP-92.
The test system of test [15] is SR.
The test system of test [16] is RXF 393.
Test [17] deals with NCI-H522.
Test [18] relates to SNB-75.
Test [19] has as its system Hs-578T.
The subject of test [20] is RPMI-8226.

Take `COC(=O)CNC(=O)CCSc1nnc(COc2ccc(Cl)cc2)n1-c1ccccc1`: the GI50 is 27.5 µM (inactive) in test [1]; 16 µM (inactive) in test [2]; 34.9 µM (inactive) in test [3]; 20.2 µM (inactive) in test [4]; 61.1 µM (inactive) in test [5]; 34 µM (inactive) in test [6]. The GI50 is 20.3 µM (inactive) in [7]; 32.1 µM (inactive) in [8]; 91.8 µM (inactive) in test [9]; > 100 µM (inactive) in [10]; 30.3 µM (inactive) in [11]; 23.4 µM (inactive) in test [12]. Further, the GI50 in test [13] is 25.9 µM (inactive); in test [14] it was 33.6 µM (inactive); in [15] it was > 10 µM (inactive); in test [16], 25.8 µM (inactive); in test [17], 15.4 µM (inactive); in test [18] it was 20.4 µM (inactive).
As for `O=C1CSC2(CCN(CCCN3c4ccccc4Sc4ccc(Cl)cc43)CC2)N1`, the GI50 in test [1] was 3.53 µM (inactive); in test [2] it was 17.6 µM (inactive); in test [19] it was 10.4 µM (inactive); in test [3], 11.3 µM (inactive); in [4], 11.2 µM (inactive); in test [5], 10.5 µM (inactive). The GI50 in test [6] is 6.65 µM (inactive); in test [7], 10.8 µM (inactive); in test [8], 10 µM (inactive); in [9] it was 13.1 µM (inactive); in [10], 12.1 µM (inactive); in [11], 3.79 µM (inactive). In addition, the GI50 is 16.2 µM (inactive) in test [12]; 6.05 µM (inactive) in test [20]; 3.57 µM (inactive) in test [13]; 5.55 µM (inactive) in test [14]; 3.07 µM (inactive) in test [16]; 10.1 µM (inactive) in test [17]. Besides, the GI50 in [18] is 7.43 µM (inactive).
For the molecule `Cc1ccc2c(n1)C(=O)c1ccccc1C2=O`, the GI50 in test [1] was 23.5 µM (inactive); in [2], 38 µM (inactive); in test [19], 72.3 µM (inactive); in test [3], 26.7 µM (inactive); in test [4], 27.6 µM (inactive); in [5] it was 18.7 µM (inactive). For the same molecule, the GI50 in test [6] is 30.1 µM (inactive); in test [7], 26.4 µM (inactive); in [8] it was 16.9 µM (inactive); in test [9], > 56.5 µM (inactive); in test [10], 26.2 µM (inactive); in test [11] it was 30.2 µM (inactive). Also, the GI50 was 28.8 µM (inactive) in test [12]; 32.6 µM (inactive) in test [20]; 30.3 µM (inactive) in test [13]; 51.6 µM (inactive) in test [14]; 24.8 µM (inactive) in test [16]; 21.7 µM (inactive) in [17]. For the same molecule, the GI50 in test [18] is 29.8 µM (inactive).
Regarding `COc1ccc2nc3ccc(OC)cc3c(SCC3CO3)c2c1` (stereo unspecified), the GI50 in test [2] is 34.4 µM (inactive); in test [3] it was 11 µM (inactive); in [4] it was 11.1 µM (inactive); in test [5] it was 19.5 µM (inactive); in test [6], 16.1 µM (inactive); in test [7], 13.8 µM (inactive). Besides, the GI50 in test [8] is 19 µM (inactive); in test [9] it was 10.8 µM (inactive); in [10], 24.6 µM (inactive); in test [11], 8.59 µM (inactive); in [12], 14.2 µM (inactive); in test [20], 22.7 µM (inactive). In addition, the GI50 in [13] is 16.8 µM (inactive); in [15] it was 6.89 µM (inactive); in [16], 15.8 µM (inactive); in [17] it was 13 µM (inactive); in test [18] it was 37.2 µM (inactive).
As to `N#CCCN(CCC#N)c1ccc(/C=C2\N=C(c3ccccc3)N(c3ccccn3)C2=O)cc1`, the GI50 in test [1], in [2], in [19], in test [3], in [4] and in test [5] was > 100 µM (inactive) each time. For the same molecule, the GI50 in [6], in test [7], in test [8], in [9], in [10] and in test [11] was > 100 µM (inactive) in each case. The GI50 in test [12], in [20], in test [13], in [14] and in test [16] was > 100 µM (inactive) throughout.
Consider `N#C/C(C(=O)Nc1ccccc1)=C(/N)N1CCOCC1`, for which the GI50 in test [2], in [3], in test [4], in [6], in test [7] and in test [8] was > 100 µM (inactive) in each case. Besides, the GI50 in test [9], in [10], in test [11], in test [12], in [20] and in [13] was > 100 µM (inactive) throughout. For the same molecule, the GI50 in test [14], in test [15] and in [18] was > 100 µM (inactive) each time.
For `CC1(C)OC2CN(C(=O)OCc3ccccc3)C(CO)C2O1` (stereo unspecified), the GI50 in test [1], in test [2], in test [19], in test [3], in test [4] and in test [5] was > 100 µM (inactive) each time. Also, the GI50 in test [6], in [7], in test [8], in test [9], in test [10] and in test [11] was > 100 µM (inactive) in each case. In addition, the GI50 in test [12], in [20], in test [13], in [14], in test [16] and in test [17] was > 100 µM (inactive) each time. In test [18], the GI50 was > 100 µM (inactive).
Take `SCCCSCCSCCCSCCS`: the GI50 in test [1], in [3], in [4], in test [5], in test [6] and in [7] was > 100 µM (inactive) throughout. Moreover, the GI50 is > 100 µM (inactive) in [8]; > 100 µM (inactive) in test [9]; > 100 µM (inactive) in test [10]; 97.9 µM (inactive) in test [11]; > 100 µM (inactive) in test [13]; 55.7 µM (inactive) in test [15]. In addition, the GI50 was > 100 µM (inactive) in test [17] and 45.6 µM (inactive) in [18].
Turning to `O=C(c1ccc(Cl)cc1)N(C(=S)OC12CC3CC(CC(C3)C1)C2)c1ccccc1`, the GI50 in test [1] was 32.3 µM (inactive); in [2], 30.9 µM (inactive); in test [19] it was 39.9 µM (inactive); in test [3], 39.2 µM (inactive); in test [4], 29.6 µM (inactive); in [5] it was 39.5 µM (inactive). For the same molecule, the GI50 in test [6] is 39.1 µM (inactive); in test [7], 45.2 µM (inactive); in [8] it was 16.8 µM (inactive); in test [9] it was 30.7 µM (inactive); in test [10], 29.6 µM (inactive); in test [11], 29.8 µM (inactive). Moreover, the GI50 in test [12] was 30.1 µM (inactive); in [13], 54.5 µM (inactive); in test [14] it was 34 µM (inactive); in [16], 99.8 µM (inactive); in [17], 21.1 µM (inactive); in test [18], 42.9 µM (inactive).
With `COc1ccc(-c2cc(-c3ccc(Nc4ccnc5cc(C(F)(F)F)ccc45)cc3)nc(N)c2C#N)cc1`, the GI50 in test [1] was > 100 µM (inactive); in [2] it was > 100 µM (inactive); in test [4] it was > 100 µM (inactive); in test [5] it was 27.7 µM (inactive); in [6], 86.9 µM (inactive); in test [8], > 100 µM (inactive). The GI50 in test [9] was 34.6 µM (inactive); in [10], 42.7 µM (inactive); in [11] it was > 100 µM (inactive); in [12] it was 45.2 µM (inactive); in test [20], > 100 µM (inactive); in test [13], 46.1 µM (inactive). Also, the GI50 in [14] was 26.1 µM (inactive); in test [15], 26.7 µM (inactive); in test [16], > 100 µM (inactive); in test [18], 31 µM (inactive).
Turning to `COc1cc(/C=C\c2ccc(C)cc2)cc(OC)c1OC`, the GI50 was 0.00783 µM (active) in test [1]; 0.0266 µM (active) in [2]; 0.0244 µM (active) in [19]; 0.00822 µM (active) in test [3]; 0.00456 µM (active) in [4]; < 0.01 µM (active) in test [5]. Moreover, the GI50 was 0.00531 µM (active) in [6]; 0.0105 µM (active) in test [7]; 0.0101 µM (active) in test [8]; 0.00296 µM (active) in [9]; 0.004 µM (active) in test [10]; 0.00131 µM (active) in test [11]. Besides, the GI50 in test [12] was < 0.01 µM (active); in test [20] it was 0.00371 µM (active); in [14], 0.0652 µM (active); in test [15] it was 0.00841 µM (active); in [16], < 0.01 µM (active); in test [17], 0.00323 µM (active). Further, in test [18], the GI50 is 0.00281 µM (active).
